Source: PMC4604124, “In Vitro Characterization of the Pharmacological Properties of the Anti-Cancer Chelator, Bp4eT, and Its Phase I Metabolites” (PLoS ONE, 2015)

Key:
MCF-7 cells [1] = test: Viability (viabilita) used to normalise caspase activity; format: cell-based, human; conditions: kontrola = 100;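 also: compound tested at 100 nM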
Text: Supplement pone.0139929.s002.zip/caspases activity.xlsx, sheet "results_viability"

[2] = design: method as in PMID 24254882; conditions: cited from earlier work
MCF-7 cells [3] = test: Mitochondrial morphology, MitoTracker Green FM; format: cell-based, human; conditions: 10 or 100 nM, 72 h
Procedure: (§1) Markers used to assess autophagy/apoptosis/necrosis in MCF-7 cells and changes of lysosomal and mitochondrial morphology were observed using an Eclipse Ti inverted epifluorescence microscope (Nikon, Tokyo, Japan), that was equipped with a cooled digital camera Zyla 5.5 sCMOS (Andor Technology, Belfast, UK), and NIS-Elements C 4.1 software (Laboratory Imaging, Prague, Czech Republic). The MCF-7 cells were seeded in 6-well plates with cover slips on the bottom at a density of 150,000 cells/well and incubated as described above in the presence or absence of 10 or 100 nM Bp4eT.
To determine the effect of Bp4eT on mitochondrial morphology, the cells were incubated with MitoTracker® Green FM (0.25 μM; λex = 490 nm; λem = 516 nm; Molecular Probes) for 10 min/37°C. The cells were then washed with fresh medium and the images captured using the microscope described above.

MCF-7 cells [4] = test: Epifluorescence microscopy, triple staining MDC / annexin V-FITC / propidium iodide; format: cell-based, human; conditions: Bp4eT 10 or 100 nM 72 h, rapamycin 1 nM 30 min
Procedure: as §1
To assess the mechanism of cellular death after incubation with Bp4eT, triple staining with monodansyl cadaverine (MDC; 50 μM; λex = 390 nm; λem = 455 nm; Sigma-Aldrich), annexin V-FITC (5 μL/mL; λex = 495 nm; λem = 519 nm; Invitrogen, Carlsbad, CA, USA), and propidium iodide (5 μg/mL; λex = 560 nm; λem = 630 nm) was used. MDC is a marker of autophagosomes and lysosomes and results in blue fluorescence. As a positive control for autophagy, MCF-7 cells were incubated with 1 nM rapamycin (Sigma-Aldrich) for 30 min/37°C, which is an established inducer of autophagy. Annexin V has high affinity to phosphatidylserine, which is translocated to the surface of both early- and late-stage apoptotic cells. […]

In the case of `CCNC(=O)NN=C(c1ccccc1)c1ccccn1` [E-Bp4eS, 2-benzoylpyridine 4-ethylsemicarbazone], the viabilita (MCF-7 cells [1]; 3 hodiny) is reported as 98.187, the viabilita (MCF-7 cells [1]; 24 hodin) is reported as 99.4673 and the viabilita (MCF-7 cells [1]; 72 hodin) is reported as 97.81.
In the case of `CCN=CNN=C(c1ccccc1)c1ccccn1` [Bp4eA, N ^3-ethyl-N ^1-[phenyl(pyridin-2-yl)methylene]formamidrazone], the “Highest concentration in plasma” value ([2]; rat plasma, after 300 min post i.v. administration of Bp4eT) is listed as less than 1 µM and the “Exposure relative to that of the parent compound” value ([2]; rats, intravenous administration of Bp4eT) is listed as 20%.
For `CCNC(=S)NN=C(c1ccccc1)c1ccccn1` [Bp4eT, 2-benzoylpyridine 4-ethyl-3-thiosemicarbazone], the Mitochondrial morphology (MCF-7 cells [3]) was “more swollen and enlarged” and the “Staining for autophagy/apoptosis/necrosis (MDC, annexin V-FITC, propidium iodide)” value (MCF-7 cells [4]) was “dose-dependent increase in the number of green annexin V-stained cell membranes or bodies”.
